Measurements as given in patent US20240182549A1, “PEPTIDES AND ANTIBODY FUSIONS THAT BIND TO SARS-COV-2 AND METHODS OF USING SAME” (priority 2021, published 2024).
“Also recorded” adds a separate entry of the source. Ends that are not written are not given here.

Legend:
[1] = test system: SARS-CoV-2 S protein pseudotyped virus-like particles; assay type: cell-based
SARS-CoV-2 RBD (RBD-Fc) = SARS-CoV-2 RBD (RBD-Fc) (Severe acute respiratory syndrome coronavirus 2, UniProt P0DTC2)
[2] = test system: SARS-CoV-2 strain 2019 n-CoV/USA_WA1/2020; assay type: cell-based
[3] = test system: B.1.1.529 (Omicron) S protein RBD; assay type: binding, SARS-CoV-2

Question: Which “neutralization potency compared to parent IgG (in words)” value [1] does the source give for “p16 (DFDFAENWMEQLKVML; not fully specified)” here?
Answer: marked improvement in neutralization potency

Question: And the “binding of peptide-phage to RBD (in words)” value (SARS-CoV-2 RBD (RBD-Fc))?
Answer: no measurable interaction

Question: What about the “improvement in 15033 neutralization efficiency (in words)” value [2] of the same substance?
Answer: most marked improvement

Question: What does the source list for “p96 (TAYECFQFPEWSCESE; not fully specified; cysteine pairing not given here)”?
Answer: binding of peptide-phage to RBD (in words) (SARS-CoV-2 RBD (RBD-Fc)): no measurable interaction; potency compared to 15033 parental (in words) [2]: no apparent improvement in potency; also recorded: decreased potency

Question: What does the source list for “p102 (ECWEWSYQLQEWSPCP; not fully specified; cysteine pairing not given here)”?
Answer: neutralization potency compared to parent IgG (in words) [1]: marked improvement in neutralization potency; EC50 of phage-displayed peptide (SARS-CoV-2 RBD (RBD-Fc)): 0.04 A268 nm absorbance units; binding of peptide-phage to RBD (in words) (SARS-CoV-2 RBD (RBD-Fc)): bound; binding to omicron RBD (in words) [3]: equivalent binding efficiency; improvement in 15033 neutralization efficiency (in words) [2]: second best
